Earlier results on one compound are cited in patent US7718380B2 (Abbott Laboratories, priority 2005, dated 2010).

For `C=CC[C@@H]1/C=C(\C)C[C@H](C)C[C@H](OC)[C@H]2O[C@@](O)(C(=O)C(=O)N3CCCC[C@H]3C(=O)O[C@H](/C(C)=C/[C@@H]3CC[C@@H](O)[C@H](OC)C3)[C@H](C)[C@@H](O)CC1=O)[C@H](C)C[C@@H]2OC` [Tacrolimus], the “solubility in aqueous solutions” value is listed as “limited solubility”.
